Test: Tissue concentration of aprepitant by HPLC after oral or inhaled administration to rabbits
Assay type: in vivo, New Zealand albino rabbits
Conditions: rabbit
Experimental: Herein, New Zealand albino rabbits (New Zealand White Rabbits) with an initial average weight of approximately 3 kg were used. The rabbits were fed ad libitum and were monitored daily to check that signs of toxicity had not appeared. […] This mixture was administered as an aerosol to the airways of a group of 3 of said rabbits (Group 5) in a dose of 0.05 mg/kg body weight per day, to another group of three rabbits (Group 6) in a dose of 0.1 mg/kg body weight per day, to another group of three rabbits (group 7) in a dose of 0.2 mg/kg body weight per day and to another group of three rabbits (Group 8) in a dose of 0.4 mg/kg body weight per day. […] After seven days of treatment all animals were euthanized and necropsied. […] Samples were taken at the peripheral level of the lung parenchyma, just below the pleural surface. Tissue samples were also taken from the nasal cavity, pharynx, larynx and bronchi. […] The average is the arithmetic average calculated for each row or column of each table. The SD is the standard deviation, calculated for each row or column of each table.

concentration at 7 days (New Zealand White (albino), lung, right inferior lobe, po, 100 mg/kg/day, Lung concentration of aprepitant LIPD (right inferior lobe), Group 4, oral 100 mg/kg per day, seven days, individual cases): 4900 ng/g
concentration at 7 days (New Zealand White (albino), lung, right inferior lobe, po, 100 mg/kg/day, Lung concentration of aprepitant LIPD, Average ± SD of cases, Group 4, oral 100 mg/kg per day, seven days): 5600 ng/g
concentration at 7 days (New Zealand White (albino), lung, right middle lobe, inhaled, 0.05 mg/kg/day, Lung concentration of aprepitant LMPD (right middle lobe), Group 5, inhalation (aerosol, olive oil) 0.05 mg/kg per day, seven days, individual cases): 1500 ng/g
concentration at 7 days (New Zealand White (albino), lung, right middle lobe, inhaled, 0.05 mg/kg/day, Lung concentration of aprepitant LMPD, Average ± SD of cases, Group 5, inhalation (aerosol, olive oil) 0.05 mg/kg per day, seven days): 1500 ng/g
concentration at 7 days (New Zealand White (albino), lung, right middle lobe, inhaled, 0.1 mg/kg/day, Lung concentration of aprepitant LMPD (right middle lobe), Group 6, inhalation (aerosol, olive oil) 0.1 mg/kg per day, seven days, individual cases): 2900 ng/g
concentration at 7 days (New Zealand White (albino), lung, right middle lobe, inhaled, 0.1 mg/kg/day, Lung concentration of aprepitant LMPD, Average ± SD of cases, Group 6, inhalation (aerosol, olive oil) 0.1 mg/kg per day, seven days): 2900 ng/g
concentration at 7 days (New Zealand White (albino), lung, right middle lobe, inhaled, 0.2 mg/kg/day, Lung concentration of aprepitant LMPD (right middle lobe), Group 7, inhalation (aerosol, olive oil) 0.2 mg/kg per day, seven days, individual cases): 6000 ng/g
concentration at 7 days (New Zealand White (albino), lung, right middle lobe, inhaled, 0.2 mg/kg/day, Lung concentration of aprepitant LMPD, Average ± SD of cases, Group 7, inhalation (aerosol, olive oil) 0.2 mg/kg per day, seven days): 6030 ng/g
concentration at 7 days (New Zealand White (albino), lung, right middle lobe, po, 100 mg/kg/day, Lung concentration of aprepitant LMPD, Average ± SD of cases, Group 4, oral 100 mg/kg per day, seven days): 5400 ng/g
concentration at 7 days (New Zealand White (albino), lung, right superior lobe, inhaled, 0.05 mg/kg/day, Lung concentration of aprepitant LSPD (right superior lobe), Group 5, inhalation (aerosol, olive oil) 0.05 mg/kg per day, seven days, individual cases): 1400 ng/g
concentration at 7 days (New Zealand White (albino), lung, right superior lobe, inhaled, 0.05 mg/kg/day, Lung concentration of aprepitant LSPD, Average ± SD of cases, Group 5, inhalation (aerosol, olive oil) 0.05 mg/kg per day, seven days): 1400 ng/g
concentration at 7 days (New Zealand White (albino), lung, right superior lobe, inhaled, 0.1 mg/kg/day, Lung concentration of aprepitant LSPD (right superior lobe), Group 6, inhalation (aerosol, olive oil) 0.1 mg/kg per day, seven days, individual cases): 2900 ng/g
concentration at 7 days (New Zealand White (albino), lung, right superior lobe, inhaled, 0.1 mg/kg/day, Lung concentration of aprepitant LSPD, Average ± SD of cases, Group 6, inhalation (aerosol, olive oil) 0.1 mg/kg per day, seven days): 2800 ng/g
concentration at 7 days (New Zealand White (albino), lung, right superior lobe, inhaled, 0.2 mg/kg/day, Lung concentration of aprepitant LSPD (right superior lobe), Group 7, inhalation (aerosol, olive oil) 0.2 mg/kg per day, seven days, individual cases): 6100 ng/g
concentration at 7 days (New Zealand White (albino), lung, right superior lobe, inhaled, 0.2 mg/kg/day, Lung concentration of aprepitant LSPD, Average ± SD of cases, Group 7, inhalation (aerosol, olive oil) 0.2 mg/kg per day, seven days): 6000 ng/g
concentration at 7 days (New Zealand White (albino), lung, right superior lobe, po, 100 mg/kg/day, Lung concentration of aprepitant LSPD, Average ± SD of cases, Group 4, oral 100 mg/kg per day, seven days): 4700 ng/g
concentration at 7 days (New Zealand White, in vivo, 0.4 mg/kg/day, Lung concentration of aprepitant, Average ± SD of the five lobes per case): 9900 ng/g
concentration at 7 days (New Zealand White, in vivo, po, 10 mg/kg/day, Lung concentration of aprepitant, Average ± SD of the five lobes per case): 960 ng/g
concentration at 7 days (New Zealand White, in vivo, po, 40 mg/kg/day, Lung concentration of aprepitant, Average ± SD of the five lobes per case): 4200 ng/g
concentration at 7 days (New Zealand White, in vivo, po, 80 mg/kg/day, Lung concentration of aprepitant, Average ± SD of the five lobes per case): 4400 ng/g
concentration at 7 days (New Zealand White, lung, left inferior lobe, inhaled, 0.2 mg/kg/day, Lung concentration of aprepitant LIPI, Average ± SD of cases, Group 7, inhalation (aerosol, olive oil) 0.2 mg/kg per day, seven days): 5900 ng/g
concentration at 7 days (New Zealand White, lung, left inferior lobe, inhaled, 0.4 mg/kg/day, Lung concentration of aprepitant LIPI (left inferior lobe), Group 8, inhalation (aerosol, olive oil) 0.4 mg/kg per day, seven days, individual cases): 10000 ng/g
concentration at 7 days (New Zealand White, lung, left inferior lobe, inhaled, 0.4 mg/kg/day, Lung concentration of aprepitant LIPI, Average ± SD of cases, Group 8, inhalation (aerosol, olive oil) 0.4 mg/kg per day, seven days): 10000 ng/g
concentration at 7 days (New Zealand White, lung, left inferior lobe, po, 10 mg/kg/day, Lung concentration of aprepitant LIPI (left inferior lobe), Group 1, oral 10 mg/kg per day, seven days, individual cases): 1500 ng/g
concentration at 7 days (New Zealand White, lung, left inferior lobe, po, 10 mg/kg/day, Lung concentration of aprepitant LIPI, Average ± SD of cases, Group 1, oral 10 mg/kg per day, seven days): 1300 ng/g
concentration at 7 days (New Zealand White, lung, left inferior lobe, po, 40 mg/kg/day, Lung concentration of aprepitant LIPI (left inferior lobe), Group 2, oral 40 mg/kg per day, seven days, individual cases): 5400 ng/g
concentration at 7 days (New Zealand White, lung, left inferior lobe, po, 40 mg/kg/day, Lung concentration of aprepitant LIPI, Average ± SD of cases, Group 2, oral 40 mg/kg per day, seven days): 4000 ng/g
concentration at 7 days (New Zealand White, lung, left inferior lobe, po, 80 mg/kg/day, Lung concentration of aprepitant LIPI (left inferior lobe), Group 3, oral 80 mg/kg per day, seven days, individual cases): 3600 ng/g
concentration at 7 days (New Zealand White, lung, left inferior lobe, po, 80 mg/kg/day, Lung concentration of aprepitant LIPI, Average ± SD of cases, Group 3, oral 80 mg/kg per day, seven days): 3700 ng/g
concentration at 7 days (New Zealand White, lung, left superior lobe, inhaled, 0.2 mg/kg/day, Lung concentration of aprepitant LSPI, Average ± SD of cases, Group 7, inhalation (aerosol, olive oil) 0.2 mg/kg per day, seven days): 6030 ng/g
concentration at 7 days (New Zealand White, lung, left superior lobe, inhaled, 0.4 mg/kg/day, Lung concentration of aprepitant LSPI (left superior lobe), Group 8, inhalation (aerosol, olive oil) 0.4 mg/kg per day, seven days, individual cases): 9900 ng/g
concentration at 7 days (New Zealand White, lung, left superior lobe, inhaled, 0.4 mg/kg/day, Lung concentration of aprepitant LSPI, Average ± SD of cases, Group 8, inhalation (aerosol, olive oil) 0.4 mg/kg per day, seven days): 10000 ng/g
Structure (SMILES): C[C@@H](OC1OCCN(Cc2nc(=O)[nH][nH]2)C1c1ccc(F)cc1)c1cc(C(F)(F)F)cc(C(F)(F)F)c1 (stereo in doubt) [Aprepitant, 5-([(2R,3S)-2-((R)-1-[3,5-bis(trifluoromethyl)phenyl]ethoxy)-3-(4-fluorophenyl)morpholino]methyl)-1H-1,2,4-triazol-3(2H)-one]
